Experiments:
[1] = test system: Candida albicans and Trichophyton mentagrophytes var. quinkeanum; assay: Oral antifungal test in mice inoculated with Candida (vagina) and Trichophyton (back), minimum effective dose; type: in vivo; conditions: 168 h; female mice, oral dosing twice on day 0 and once daily on days 1-4; skin lesions scored and vaginal samples cultured on day 7; read-out: minimum effective dose (MED)
Experimental: The following Monday (day 0) they are clipped on the back and then dosed orally with the test compound. They are then inoculated with Candida albicans in the vagina and Trichophyton mentagrophytes var. quinkeanum on the back, and then given a second dose of the same compound. Dosing is repeated once daily on days 1-4. On day 7 skin lesions are scored visually and vaginal samples taken for culture on agar. Groups of 5 mice are used and the compound is dosed initially at a level of 250 mg./kg. The dose is then reduced sequentially until a minimum effective dose (MED) is found. The MED for 2-(2-fluoro-4-trifluoromethylphenyl)-l,3-di(l,2,4-triazol-l-yl)-2-propanol in this test was 5 mg. per kg.

[2] = Teratogenicity / maternal toxicity in the rabbit; type: in vivo; conditions: lowest dose at which impaired maternal weight gain was observed
Experimental: As indicated above, the compound of this invention has been found not to be teratogenic at doses up to the maternally toxic dose. In both the rabbit and the rat, the maternally toxic dose was taken to be the lowest dose at which impaired maternal weight gain was observed. In the rabbit, this dose was 10 mg./kg. and in the rat between 25 and 50 mg./kg.

**Q.** For `OC(Cn1cncn1)(Cn1cncn1)c1ccc(C(F)(F)F)cc1F` [2-(2-fluoro-4-trifluoromethylphenyl)-l,3-di(l,2,4-triazol-l-yl)-2-propanol], which minimal effective dose [1] is on record?
**A.** The minimal effective dose was 5 mg/kg.

**Q.** And the maternally toxic dose [2]?
**A.** Its maternally toxic dose is 10 mg/kg.
